Measurements taken from US8937039B2, “Peptide-based peroxidase inhibitors and methods of using same” (The Medical College of Wisconsin, Inc., priority 2009, dated 2015).
Entries after “also recorded” stand apart in the source; their conditions may differ. Residues, ends and D or L forms follow the SMILES beside them.

Experiments:
NADPH oxidase (NOX) = molecular target: T1, NADPH oxidase (NOX) (Homo sapiens, UniProt P04839); experiment: PMA-stimulated HL-60 cell superoxide formation (SOD-inhibitable cytochrome C reduction); format: cell-based; details: cytochrome C assay
T1 construct: host or cells: HL-60 cells stimulated with PMA
T1 sequence (P04839 2-570 limits assumed): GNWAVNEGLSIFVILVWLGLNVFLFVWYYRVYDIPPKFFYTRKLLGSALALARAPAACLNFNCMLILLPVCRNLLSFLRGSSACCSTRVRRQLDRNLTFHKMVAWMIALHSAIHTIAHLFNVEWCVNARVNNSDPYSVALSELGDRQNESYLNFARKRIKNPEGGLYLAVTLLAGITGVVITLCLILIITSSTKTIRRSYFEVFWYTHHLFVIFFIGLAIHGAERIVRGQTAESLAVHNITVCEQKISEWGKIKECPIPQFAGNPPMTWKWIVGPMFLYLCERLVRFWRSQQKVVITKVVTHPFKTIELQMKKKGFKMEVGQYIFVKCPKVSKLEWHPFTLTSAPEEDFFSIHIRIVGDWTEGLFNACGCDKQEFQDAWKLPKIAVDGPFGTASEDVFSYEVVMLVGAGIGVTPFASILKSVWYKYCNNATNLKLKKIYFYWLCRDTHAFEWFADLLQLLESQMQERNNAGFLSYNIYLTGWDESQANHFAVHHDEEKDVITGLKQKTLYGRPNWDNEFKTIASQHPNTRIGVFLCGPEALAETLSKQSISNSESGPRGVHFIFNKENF
T1 sequence (P13498 2-195 partner limits assumed): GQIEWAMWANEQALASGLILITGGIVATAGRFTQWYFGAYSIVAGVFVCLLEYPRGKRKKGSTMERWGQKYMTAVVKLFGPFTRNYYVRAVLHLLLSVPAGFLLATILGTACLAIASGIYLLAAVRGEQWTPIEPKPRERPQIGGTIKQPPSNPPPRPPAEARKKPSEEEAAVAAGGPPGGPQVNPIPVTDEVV
Method: PMA-induced Superoxide Anion Formation. HL-60 cells were cultured in RPMI 1640 medium containing 10% FCS (passage 20-50). HL-60 cells were harvested by centrifugation (1000 rpm, 10 min), washed 2× with phosphate buffer (10 mM, pH 7.4) with NaCl (138 mM), KCl (2.67 mM), CaCl2 (0.901 mM), MgCl2 (0.493 mM) and glucose (1 mg/ml) to remove culture medium. The HL-60 cells (6×10^6/0.5 ml) were re-suspended in DPBS. After stimulation with PMA (10 μM), the HL-60 cells were incubated with cytochrome C (40 μM) with or without superoxide dismutase at 37° C. for 30 min. The reaction was stopped by centrifugation. Cytochrome C reduction was measured at 550 nm on a UV-Vis spectrophotometer (Agilent, Model 8453).
PMA-stimulated HL-60 cell O2.^− Formation: HL-60 cells were harvested by centrifugation (1000 rpm, 10 min), washed twice with DPBS with glucose to remove culture medium. The HL-60 cells (1.2×10^7/ml) were re-suspended in DPBS with glucose. After stimulation with PMA (10 μM), the HL-60 cells were incubated with cytochrome C (40 μM) with or without superoxide dismutase (500 units/mL) at 37° C. for 10 min and then the HL-60 cells were removed by centrifugation. Cytochrome C reduction in supernatants was measured at 550 nm using a UV-Vis spectrophotometer (Agilent, Model 8453).

[1] = system: facialis arteries from non-treated SCD mice; experiment: Vasodilatation of facialis arteries from untreated SCD mice, peptide added ex vivo; design: species or system mouse; details: KYC 1.5 μg/ml, 20 min
Method: For vessels treated with KYC (ex-vivo): Using untreated SCD mice, the vessels were isolated/cannulated the same as for the mice treated with KYC in vivo. After the control dose-response curve using acetylcholine (ACh, 10^−7-10^−4 M) and subsequent washing, the vessels were incubated with KYC 1.5 μg/ml for 20 minutes, pre-constricted, and exposed to acetylcholine (ACh, 10^−7-10^−4 M). Vasodilation to papaverine (2.0×10^−4 M) was determined after all treatments to ensure smooth muscle viability. Vasodilation was calculated as a percent of maximal vessel diameter change.

MPO = molecular target: T2, MPO (Homo sapiens, UniProt P05164); experiment: MPO-mediated LDL Trp oxidation (Trp fluorescence); format: biochemical; design: purchased Lee Biosolutions (St. Louis, Mo.); details: MPO/H2O2/NO2−, 30 min, room temperature
T2 sequence (P05164 49-745): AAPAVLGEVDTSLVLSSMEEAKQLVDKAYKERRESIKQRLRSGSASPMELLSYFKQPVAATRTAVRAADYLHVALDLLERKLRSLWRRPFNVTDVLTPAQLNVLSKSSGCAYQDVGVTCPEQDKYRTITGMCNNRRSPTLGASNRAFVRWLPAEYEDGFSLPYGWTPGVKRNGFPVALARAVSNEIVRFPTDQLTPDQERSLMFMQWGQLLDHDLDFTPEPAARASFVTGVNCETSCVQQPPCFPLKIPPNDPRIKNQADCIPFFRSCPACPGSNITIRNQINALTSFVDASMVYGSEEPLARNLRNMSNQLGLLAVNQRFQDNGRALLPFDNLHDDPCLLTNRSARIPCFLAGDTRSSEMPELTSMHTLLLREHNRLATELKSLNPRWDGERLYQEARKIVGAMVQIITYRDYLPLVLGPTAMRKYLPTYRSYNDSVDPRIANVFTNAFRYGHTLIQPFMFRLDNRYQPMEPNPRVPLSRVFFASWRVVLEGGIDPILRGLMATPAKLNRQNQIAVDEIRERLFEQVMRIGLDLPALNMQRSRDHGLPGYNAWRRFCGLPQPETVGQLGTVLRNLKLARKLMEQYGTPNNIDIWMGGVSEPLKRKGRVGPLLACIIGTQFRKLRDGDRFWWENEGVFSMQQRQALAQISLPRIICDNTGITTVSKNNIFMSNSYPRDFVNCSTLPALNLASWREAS
Method: MPO-mediated LDL Trp Oxidation: Reaction mixtures containing LDL (0.15 mg/mL), NaNO2 (100 μM), H2O2 (100 μM), MPO (20 nM) and increasing concentrations of KYC in a phosphate buffer (100 mM, pH 7.4) containing DTPA (100 μM) were incubated at room temperature for 30 min. Reactions were stopped by addition of catalase (2,000 units/mL) and the oxidation of Trp in LDL was determined by measuring changes in the intrinsic fluorescence of Trp (Ex 294 nm/Em 345 nm) using a LC-50 fluorometer (Perkin Elmer, Waltham Mass.).

MPO-dependent oxidation of Trp residues in LDL (in words) (MPO): protected the Trp residues
Structure (SMILES): CC(=O)N[C@@H](CCCCN)C(=O)N[C@@H](Cc1ccc(O)cc1)C(=O)N[C@@H](CS)C(N)=O [KYC, N-acetyl Lysyltyrosylcysteine Amide] (Ac-Lys-Tyr-Cys-NH2)
O2.− production in PMA-stimulated HL-60 cells (in words) (NADPH oxidase (NOX)): neither KYC nor KYC disulfide have any significant effect; also recorded: Neither KYC nor KYC disulfide had any significant effect | Vasodilatation in response to ACh, peptide added to vessel bath (in words) [1]: did not increase vasodilatation
